The values that follow come from patent US20070249670A1, “Glycogen Phosphorylase Inhibitor Compounds and Pharmaceutical Compositions Thereof” (SMITHKLINE BEECHAM CORPORATION, priority 2004, published 2007).

Molecules are shown by their SMILES. Structures can show the parent of a compound that is named as a salt.

This assay addresses T1, human liver glycogen phosphorylase a (HLGPa) (Homo sapiens, UniProt P06737).
T1 construct: creating a full-length cDNA fused at the 5′ end to codons for methionine-glycine-alanine-histidine; 6xHis tag (leader Met-Gly-Ala-His6-Gly-Gly) (N); made in house; host or cells: E. coli (bacterial expression plasmid pTXK1007LTev)
T1 sequence (P06737 2-847 limits assumed): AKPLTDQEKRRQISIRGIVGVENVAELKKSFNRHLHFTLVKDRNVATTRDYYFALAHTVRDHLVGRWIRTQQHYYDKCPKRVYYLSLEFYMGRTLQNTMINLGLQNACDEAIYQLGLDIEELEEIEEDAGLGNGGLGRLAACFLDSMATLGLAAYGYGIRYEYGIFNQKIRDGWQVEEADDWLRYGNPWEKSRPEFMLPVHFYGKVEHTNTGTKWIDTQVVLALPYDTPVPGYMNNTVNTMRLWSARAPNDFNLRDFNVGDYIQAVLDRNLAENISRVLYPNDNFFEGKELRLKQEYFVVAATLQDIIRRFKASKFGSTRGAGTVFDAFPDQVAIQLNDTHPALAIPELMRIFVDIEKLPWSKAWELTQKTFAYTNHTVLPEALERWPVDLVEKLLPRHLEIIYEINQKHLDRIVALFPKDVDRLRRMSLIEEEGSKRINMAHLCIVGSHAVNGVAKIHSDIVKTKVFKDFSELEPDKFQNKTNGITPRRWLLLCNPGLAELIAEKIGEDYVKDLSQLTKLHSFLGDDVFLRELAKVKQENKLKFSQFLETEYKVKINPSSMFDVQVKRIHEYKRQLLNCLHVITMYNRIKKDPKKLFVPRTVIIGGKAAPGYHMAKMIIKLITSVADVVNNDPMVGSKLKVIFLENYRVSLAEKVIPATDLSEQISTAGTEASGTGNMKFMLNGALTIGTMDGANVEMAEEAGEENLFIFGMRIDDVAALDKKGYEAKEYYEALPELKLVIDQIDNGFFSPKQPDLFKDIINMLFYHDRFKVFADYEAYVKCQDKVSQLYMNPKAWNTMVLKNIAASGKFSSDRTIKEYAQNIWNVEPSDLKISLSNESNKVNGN
Description: Human liver glycogen phosphorylase a enzymatic activity assay (coupled, fluorescent resorufin readout, with and without 10 mM glucose). The class given is biochemical. As to conditions: human liver glycogen phosphorylase a; table does not say whether with or without 10 mM glucose.

`C[C@@H](C(=O)O)N(Cc1ccccc1)C(=O)c1cc2ccccc2cc1NC(=O)Nc1c(Cl)cccc1Cl` [Example 250, N-{[3-({[(2,6-dichlorophenyl)amino]carbonyl}amino)-2-naphthalenyl]carbonyl}-N-(phenylmethyl)-L-alanine]: the IC50 was found to be 7770 nM.

Compound `O=C(Nc1cc2ccccc2cc1C(=O)N(Cc1ccccc1)[C@@H](Cc1ccccc1)C(=O)O)Nc1c(Cl)cccc1Cl` [Example 251, N-{[3-({[(2,6-dichlorophenyl)amino]carbonyl}amino)-2-naphthalenyl]carbonyl}-N-(phenylmethyl)phenylalanine] returned an IC50 of 12200 nM.

In turn, `CCCCN(CC(=O)O)C(=O)c1cc2ccccc2cc1NC(=O)Nc1c(Cl)cccc1Cl` [Example 252, N-butyl-N-{[3-({[(2,6-dichlorophenyl)amino]carbonyl}amino)-2-naphthalenyl]carbonyl}glycine] showed an IC50 of 650 nM.

The compound `Cc1cc(C)c(NC(=O)Nc2cc3ccccc3cc2C(=O)N2CCN(C(=O)OC(C)(C)C)C[C@H]2C(=O)O)c(C)c1` [Example 254, (2S)-4-{[(1,1-dimethylethyl)oxy]carbonyl}-1-{[3-({[(2,4,6-trimethylphenyl)amino]carbonyl}amino)-2-naphthalenyl]carbonyl}-2-piperazinecarboxylic acid] came in with an IC50 of 810 nM.

`O=C(Nc1cc2ccccc2cc1C(=O)N[C@H](C(=O)O)C1CCCCC1)c1ccc(-c2ccc(Cl)cc2Cl)o1` [Example 255, (2S)-cyclohexyl({[3-({[5-(2,4-dichlorophenyl)-2-furanyl]carbonyl}amino)-2-naphthalenyl]carbonyl}amino)ethanoic acid] yielded an IC50 of 2600 nM.

`Cc1cc(C)c(NC(=O)Nc2cc3ccccc3cc2C(=O)N2CCN(S(C)(=O)=O)C[C@H]2C(=O)O)c(C)c1` [Example 256, (2S)-4-(methylsulfonyl)-1-{[3-({[(2,4,6-trimethylphenyl)amino]carbonyl}amino)-2-naphthalenyl]carbonyl}-2-piperazinecarboxylic acid] returned an IC50 of 17400 nM.

In turn, `Cc1cc(C)c(NC(=O)Nc2cc3ccccc3cc2C(=O)N2CCCC[C@H]2C(=O)O)c(C)c1` [Example 257, (2S)-1-{[3-({[(2,4,6-trimethylphenyl)amino]carbonyl}amino)-2-naphthalenyl]carbonyl}-2-piperidinecarboxylic acid] displayed a half-inhibitory concentration (IC50) of 18400 nM.

Compound `Cc1cc(C)c(NC(=O)Nc2cc3ccccc3cc2C(=O)O)c(C)c1` [Example 263, 3-({[(2,4,6-trimethylphenyl)amino]carbonyl}amino)-2-naphthalenecarboxylic acid] had an IC50 of 3460 nM.

The compound `Cc1cc(C)c(NC(=O)Nc2cc3ccccc3cc2C(=O)NC(CCC(C)CC(C)(C)C)C(=O)O)c(C)c1` (centres unmarked) [Example 264, 5,7,7-trimethyl-2-({[3-({[(2,4,6-trimethylphenyl)amino]carbonyl}amino)-2-naphthalenyl]carbonyl}amino)octanoic acid] had an IC50 of 120 nM.

`Cc1cc(C)c(CC(=O)Nc2cc3ccccc3cc2C(=O)N[C@H](C(=O)O)[C@@H](C)OC(C)(C)C)c(C)c1` [Example 268, O-(1,1-dimethylethyl)-N-[(3-{[(2,4,6-trimethylphenyl)acetyl]amino}-2-naphthalenyl)carbonyl]-L-threonine] had an IC50 of 50 nM.

For `Cc1cc(C)c(NC(=O)Nc2cc3ccccc3cc2C(=O)N[C@@](C)(CC(C)C)C(=O)O)c(C)c1` [Example 269, 2-methyl-N-{[3-({[(2,4,6-trimethylphenyl)amino]carbonyl}amino)-2-naphthalenyl]carbonyl}leucine], 210 nM corresponded to half-maximal inhibition (IC50).

`Cc1cc(C)c(-c2ccc(C(=O)Nc3cc4ccccc4cc3C(=O)N[C@H](C(=O)O)C3CCCCC3)o2)c(C)c1` [Example 270, (2S)-cyclohexyl({[3-({[5-(2,4,6-trimethylphenyl)-2-furanyl]carbonyl}amino)-2-naphthalenyl]carbonyl}amino)ethanoic acid] had an IC50 of 10300 nM.

`COCCOC[C@H](NC(=O)c1cc2ccccc2cc1NC(=O)Nc1c(C)cc(C)cc1C)C(=O)O` [Example 272, O-[2-(methyloxy)ethyl]-N-{[3-({[(2,4,6-trimethylphenyl)amino]carbonyl}amino)-2-naphthalenyl]carbonyl}-L-serine] displayed an IC50 of 38 nM.

`Cc1cc(C)c(NC(=O)Nc2cc3ccccc3cc2C(=O)N[C@@H](COC2CCOCC2)C(=O)O)c(C)c1` [Example 276, O-(tetrahydro-2H-pyran-4-yl)-N-{[3-({[(2,4,6-trimethylphenyl)amino]carbonyl}amino)-2-naphthalenyl]carbonyl}-L-serine] gave a concentration for half-maximal inhibition (IC50) of 45 nM.

Regarding `O=C(Nc1cc2ccccc2cc1C(=O)NC1(C(=O)O)CCCC1)Nc1c(Cl)cc(Cl)cc1Cl` [Example 279, 1-({[3-({[(2,4,6-Trichlorophenyl)amino]carbonyl}amino)-2-naphthalenyl]carbonyl}amino)cyclopentanecarboxylic acid], the IC50 was 3000 nM.

In turn, `O=C(Nc1cc2ccccc2cc1C(=O)NC1(C(=O)O)CCCCC1)Nc1c(Cl)cc(Cl)cc1Cl` [Example 281, 1-({[3-({[(2,4,6-trichlorophenyl)amino]carbonyl}amino)-2-naphthalenyl]carbonyl}amino)cyclohexanecarboxylic acid] displayed an IC50 of 1620 nM.

In the case of `Cc1cc(C)c(NC(=O)Nc2cc3ccccc3cc2C(=O)NC2(C(=O)O)CCOCC2)c(C)c1` [Example 282, 4-({[3-({[(2,4,6-Trimethylphenyl)amino]carbonyl}amino)-2-naphthalenyl]carbonyl}amino)tetrahydro-2H-pyran-4-carboxylic acid], the half-inhibitory concentration (IC50) was 1150 nM.

`O=C(Nc1cc2ccccc2cc1C(=O)NC1(C(=O)O)CCOCC1)Nc1c(Cl)cccc1Cl` [Example 283, 4-({[3-({[(2,6-Dichlorophenyl)amino]carbonyl}amino)-2-naphthalenyl]carbonyl}amino)tetrahydro-2H-pyran-4-carboxylic acid] yielded an IC50 of 7180 nM.

The compound `O=C(Nc1cc2ccccc2cc1C(=O)NC1(C(=O)O)CCSCC1)Nc1c(Cl)cc(Cl)cc1Cl` [Example 284, 4-({[3-({[(2,4,6-Trichlorophenyl)amino]carbonyl}amino)-2-naphthalenyl]carbonyl}amino)tetrahydro-2H-thiopyran-4-carboxylic acid] showed an IC50 of 2310 nM.

As for `Cc1cc(C)c(NC(=O)Nc2cc3ccccc3cc2C(=O)NC2(C(=O)O)CCS(=O)(=O)CC2)c(C)c1` [Example 285, 4-({[3-({[(2,4,6-Trimethylphenyl)amino]carbonyl}amino)-2-naphthalenyl]carbonyl}amino)tetrahydro-2H-thiopyran-4-carboxylic acid 1,1-dioxide], the IC50 amounted to 3310 nM.

Regarding `O=C(Nc1cc2ccccc2cc1C(=O)NC1(C(=O)O)CCN(Cc2ccccc2)CC1)Nc1c(Cl)cccc1Cl` [Example 286, 4-({[3-({[(2,6-Dichlorophenyl)amino]carbonyl}amino)-2-naphthalenyl]carbonyl}amino)-1-(phenylmethyl)-4-piperidinecarboxylic acid], half-maximal inhibition (IC50) was put at 1380 nM.

Consider `Cc1cc(C)c(NC(=O)Nc2cc3ccccc3cc2C(=O)NC2(C(=O)O)CCN(C(=O)OC(C)(C)C)CC2)c(C)c1` [Example 287, 1-{[(1,1-Dimethylethyl)oxy]carbonyl}-4-({[3-({[(2,4,6-trimethylphenyl)amino]carbonyl}amino)-2-naphthalenyl]carbonyl}amino)-4-piperidinecarboxylic acid], for which the IC50 amounted to 430 nM.

The compound `Cc1cc(C)c(NC(=O)Nc2cc3ccccc3cc2C(=O)NC2(C(=O)O)CCNCC2)c(C)c1` [Example 288, 4-({[3-({[(2,4,6-trimethylphenyl)amino]carbonyl}amino)-2-naphthalenyl]carbonyl}amino)-4-piperidinecarboxylic acid trifluoroacetate] displayed an IC50 of 6170 nM.

Take `CCCCN1CCC(NC(=O)c2cc3ccccc3cc2NC(=O)Nc2c(C)cc(C)cc2C)(C(=O)O)CC1` [Example 289, 1-Butyl-4-({[3-({[(2,4,6-trimethylphenyl)amino]carbonyl}amino)-2-naphthalenyl]carbonyl}amino)-4-piperidinecarboxylic acid]: the IC50 is 4390 nM.

`CCCC(=O)N1CCC(NC(=O)c2cc3ccccc3cc2NC(=O)Nc2c(C)cc(C)cc2C)(C(=O)O)CC1` [Example 290, 1-Butanoyl-4-({[3-({[(2,4,6-trimethylphenyl)amino]carbonyl}amino)-2-naphthalenyl]carbonyl}amino)-4-piperidinecarboxylic acid] yielded an IC50 of 1240 nM.

`O=C1CCC(NC(=O)c2cc3ccccc3cc2NC(=O)Nc2c(Cl)cccc2Cl)(C(=O)O)CC1` [Example 292, 1-({[3-({[(2,6-dichlorophenyl)amino]carbonyl}amino)-2-naphthalenyl]carbonyl}amino)-4-oxocyclohexanecarboxylic acid] returned an IC50 of 6590 nM.

For orientation: IC50 means the concentration needed to halve the response being measured. A lower IC50 goes with higher potency.
